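Interpolation was linear, between the two tested concentrations surrounding the appropriate level; five concentrations were tested over 48 hours in 96-well plates. TGI denotes the concentration required for complete inhibition of growth.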
Key:
Test in all cases: DTP human tumour cell line panel, 48 h
HL-60(TB) leukemia = system: HL-60(TB) leukemia
NCI-H226 lung = system: NCI-H226 lung
HCT-15 colon = system: HCT-15 colon
OVCAR-3 ovarian = system: OVCAR-3 ovarian
HOP-62 NSCLC = system: HOP-62 NSCLC
K-562 leukemia = system: K-562 leukemia
T-47D breast = system: T-47D breast
MDA-MB-231 breast = system: MDA-MB-231 breast
HT29 colon = system: HT29 colon
BT-549 breast = system: BT-549 breast
NCI-H460 lung = system: NCI-H460 lung
786-0 renal = system: 786-0 renal
IGROV1 ovarian = system: IGROV1 ovarian
KM12 colon = system: KM12 colon
NCI-H522 lung = system: NCI-H522 lung
PC-3 prostate = system: PC-3 prostate
TK-10 renal = system: TK-10 renal

Compound	TGI (HL-60(TB) leukemia)	TGI (NCI-H226 lung)	TGI (HCT-15 colon)	TGI (OVCAR-3 ovarian)	TGI (HOP-62 NSCLC)	TGI (K-562 leukemia)	TGI (T-47D breast)	TGI (MDA-MB-231 breast)	TGI (HT29 colon)	TGI (BT-549 breast)	TGI (NCI-H460 lung)	TGI (786-0 renal)	TGI (IGROV1 ovarian)	TGI (KM12 colon)	TGI (NCI-H522 lung)	TGI (PC-3 prostate)	TGI (TK-10 renal)
CN(C)c1ccc(/C=C(\NC(=O)c2ccccc2)C(=O)Nc2ccccc2C(=O)O)cc1	> 100 µM	> 100 µM	> 100 µM	> 100 µM	> 100 µM	> 100 µM	> 100 µM	> 100 µM	> 100 µM	> 100 µM	> 100 µM	> 100 µM	> 100 µM	> 100 µM	> 100 µM	> 100 µM	–
O=P1(Oc2ccc(Cl)cc2)OCCS1 (stereo not given)	> 100 µM	> 100 µM	> 100 µM	–	> 100 µM	–	> 100 µM	> 100 µM	> 100 µM	> 100 µM	> 100 µM	> 100 µM	> 100 µM	–	> 100 µM	> 100 µM	> 100 µM
COc1cc(C(N)=O)cc(NC(=O)/C=C/c2ccccc2)c1OC	> 100 µM	–	> 100 µM	> 100 µM	> 100 µM	> 100 µM	> 100 µM	> 100 µM	> 100 µM	> 100 µM	> 100 µM	> 100 µM	> 100 µM	> 100 µM	> 100 µM	> 100 µM	> 100 µM
Cc1cc2c(cc1C)[n+](=O)c(N1CCN(c3ccc([N+](=O)[O-])cc3)CC1)c(C#N)n2[O-]	> 100 µM	> 100 µM	> 100 µM	–	31.7 µM	–	63.7 µM	78.1 µM	> 100 µM	> 100 µM	70 µM	59.8 µM	> 100 µM	> 100 µM	88.3 µM	> 100 µM	35.3 µM
O=[N+]([O-])c1cccc2nc3ccccc3c(NCCCN3CCOCC3)c12	0.157 µM	0.0501 µM	0.0491 µM	0.0484 µM	0.0618 µM	–	0.241 µM	0.0973 µM	0.0349 µM	0.115 µM	0.0661 µM	0.0404 µM	0.084 µM	0.054 µM	0.0936 µM	0.0684 µM	0.149 µM
OCC1OC(n2nc(-c3ccccc3)nc2-c2cnccn2)C(O)C1O (stereo not given)	> 100 µM	–	> 100 µM	> 100 µM	> 100 µM	> 100 µM	> 100 µM	> 100 µM	> 100 µM	> 100 µM	> 100 µM	> 100 µM	> 100 µM	> 100 µM	> 100 µM	> 100 µM	> 100 µM
COC(=O)NN=C(c1ccc(Cl)cc1)c1ccc(Cl)cc1	> 100 µM	> 100 µM	> 100 µM	> 100 µM	–	> 100 µM	> 100 µM	> 100 µM	> 100 µM	> 100 µM	> 100 µM	> 100 µM	> 100 µM	> 100 µM	> 100 µM	> 100 µM	> 100 µM
C#CCOC(=O)C(N)CSSCC(N)C(=O)O (stereo not given)	> 100 µM	> 100 µM	> 100 µM	–	> 100 µM	–	> 100 µM	> 100 µM	–	> 100 µM	> 100 µM	> 100 µM	> 100 µM	> 100 µM	> 100 µM	> 100 µM	> 100 µM
CCOC(=O)c1cc2c([nH]1)C(=O)CC1=C2CCN1Cc1ccccc1	54.1 µM	32.3 µM	21.6 µM	–	–	25.9 µM	6.77 µM	28.8 µM	30.8 µM	38.3 µM	39.2 µM	31 µM	36 µM	33.2 µM	38.5 µM	47.2 µM	30 µM
c1ccc2c3c([nH]c2c1)C1c2[nH]c4ccccc4c2CCN1CC3	66.5 µM	37.6 µM	26.9 µM	25.1 µM	27.8 µM	–	37.1 µM	36.6 µM	26.7 µM	29.9 µM	24.3 µM	25.8 µM	31.1 µM	41.3 µM	28.6 µM	27.1 µM	23.2 µM
CCOC(=O)c1cc(C2CCN(Cc3ccccc3)C2=O)c(C(=O)C(=[N+]=[N-])C(C)=O)[nH]1 (stereo not given)	> 100 µM	> 100 µM	> 100 µM	> 100 µM	> 100 µM	> 100 µM	> 100 µM	> 100 µM	> 100 µM	> 100 µM	> 100 µM	> 100 µM	> 100 µM	> 100 µM	–	> 100 µM	–
Cc1c(C(=O)O)c2cc3ccccc3cc2c(=O)n1C	> 10 µM	> 10 µM	> 10 µM	> 10 µM	–	–	> 10 µM	> 10 µM	> 10 µM	> 10 µM	> 10 µM	> 10 µM	> 10 µM	> 10 µM	> 10 µM	> 10 µM	> 10 µM
Cc1cc2c(cc1C)[n+](=O)c(C(=O)N1CCN(c3ccc([N+](=O)[O-])cc3)CC1)c(C)n2[O-]	> 100 µM	–	> 100 µM	> 100 µM	29.4 µM	> 100 µM	> 100 µM	55.5 µM	> 100 µM	49.9 µM	> 100 µM	34.8 µM	87.7 µM	> 100 µM	> 100 µM	> 100 µM	40.4 µM

Reference: PubChem BioAssay (NCI)
